Laboratory results taken from patent US20220079993A1, “NON-NATURALLY OCCURRING THERMOGENIC ADIPOCYTES, METHODS OF MAKING, AND METHODS OF USE THEREOF” (University of Georgia Research Foundation, Inc., priority 2019, published 2022).
Like-named read-outs stand apart in the source and are kept apart here.

Experiments:
beige adipocytes = test: Lipolysis validation assays of primary hits at three concentrations; assay type: cell-based, human; details: Homo sapiens, Adipocyte, 24 h; for activity at 2.2 µM: Conc. 2.2 µM; for activity at 6.7 µM: Conc. 6.7 µM; for activity at 20 µM: Conc. 20 µM; for activity at 2200 µM: Conc. 2.2 mM
Description: (§1) ADSCs were seeded at 5000 cell/cm^2 in 12-well plates, grown for 5 days and then induced to differentiate into GC for 20 days. Prior to the assay, cells were washed in DPBS twice and then incubated with DMEM with 2% fatty-acid free BSA (Santa Crus, sc-500949) and Triascin C (5 μM). Cells were treated with forskolin (20 μM) for indicated time periods and supernatant samples were collected. Lipolysis assay was performed with free glycerol reagent (Sigma, F6428-40ML), according to manufacturer instructions.
Lipolysis assays were performed after 24 hours of drug treatment by measuring free glycerol released in the 384-well format, using the procedure described above. Absorbance for each compound was normalized to untreated control samples for each plate and calculated as a percent of the control. Cut-offs for “activating” and “inhibiting” compounds were set at 2-fold. Validation assays were performed for select compounds at a range of concentration doses.
Next, lipolysis assays were performed for all 111 compounds identified in the primary screen at three different concentrations, of which twenty-four were selected for further analysis based on their newness and/or reproducibility.

GC = test: Lipolysis assay (free glycerol) after forskolin; assay type: cell-based, human
Description: as §1

Molecule `C=C[C@@]1(C)CC(=O)[C@]2(O)[C@@]3(C)[C@@H](O)CCC(C)(C)[C@@H]3[C@H](O)[C@H](OC(C)=O)[C@@]2(C)O1` [Forskolin] has an activity at 2.2 µM (beige adipocytes; read-out: % of Control (2)) of 394%, an activity at 2.2 µM (beige adipocytes; read-out: % of Control (4)) of 247% and an activity at 6.7 µM (beige adipocytes; read-out: % of Control (1)) of 311%. For the same molecule, the activity at 6.7 µM (beige adipocytes; read-out: % of Control (2)) was 362%, the activity at 6.7 µM (beige adipocytes; read-out: % of Control (3)) was 241% and the activity at 6.7 µM (beige adipocytes; read-out: % of Control (4)) was 242%. The activity at 20 µM (beige adipocytes; read-out: % of Control (1)) was 417%, the activity at 20 µM (beige adipocytes; read-out: % of Control (2)) was 330% and the activity at 20 µM (beige adipocytes; read-out: % of Control (3)) was 253%. The activity at 20 µM (beige adipocytes; read-out: % of Control (4)) was 267%, the activity at 2200 µM (beige adipocytes; read-out: % of Control (1)) was 417% and the activity at 2200 µM (beige adipocytes; read-out: % of Control (3)) was 252%. For the same molecule, the “Increase in free glycerol in the media” value (GC; 4 hours of FSK (20 μM)) was about 2 fold and the “Increase in free glycerol in the media” value (GC; 8 hours of FSK (20 μM)) was about 5 fold.
